Data taken from patent US20100249175A1, “Dicationic compounds which selectively recognize G-quadruplex DNA” (priority 2005, published 2010).

Key:
[1] = biological target: duplex hairpin d[[…]] (SEQ ID NO: 8); assay: Surface plasmon resonance, immobilized duplex hairpin DNA; assay type: binding; details: SPR, 25° C., HEPES buffer containing 200 mM KCl
Method: Surface plasmon resonance (SPR) measurements were performed with a four-channel Biacore® 3000 optical biosensor system (Biacore International AB, Uppsala, Sweden). 5′-biotin labeled DNA was immobilized onto streptavidin-coated Biacore® SA sensor chips as previously described. See Lacy, E. R., et al., J. Amer. Chem. Soc., 124, 2153-2163 (2002); Mazur, S., et al., J. Mol. Biol., 300, 321-337 (2000); Nguyen, B., et al., Biopolymers, 63, 281-297 (2002); Wang, L., et at, Proc. Natl. Acad. Sci. USA, 97, 12-16 (2000); and Wang, L., et al., Biochemistry, 40, 2511-2521 (2001). Two flow cells were used to immobilize the
DNA oligomer samples, while a third cell was left blank as a control. […]
Solutions of known concentration of 8 ranging from 2 nM to 10 μM were injected through the flow cells until a constant steady-state response was obtained. […] The instrument response (RU) in the steady-state region was determined by linear averaging over a 50 second time span. The predicted maximum response per bound compound in the steady-state region (RUmax) was determined from the DNA molecular weight, the amount of DNA on the flow cell, the compound molecular weight, and the refractive index gradient ratio of the compound and DNA, as previously described. […]
Surface plasmon resonance (SPR) was used to quantitatively evaluate the interaction between 8 and human telomeric DNA. […]

[2] = system: STIB 900 strain of Trypanosoma brucei rhodesiense (T. b. r.); assay: In vivo T. b. r. STIB 900 mouse model; details: 20 mg/kg ip
Method: Groups of four mice were infected intraperitoneally with 2×10^5 bloodstream forms of T. b. r. STIB 900 which originates from a patient in Tanzania. On days 3, 4, 5, and 6 post-infection the experimental groups were treated with the drugs either by the intraperitoneal or for prodrugs by the oral route. Usually the highest tolerated dose was used which was determined in a pretoxicological experiment. Parasitemia of the mice was checked daily up to day 14 post-infection and thereafter 2 times per week up to day 60. One group of mice was not treated and acted as control. For relapsing mice, the day of death was recorded and the survival time determined.

[3] = system: modified human telomere sequences; assay: CD titration with modified human telomere sequences; assay type: binding; details: 50 mM KCl, 10 mM K2HPO4, 0.1 mM EDTA, pH 7.0
Source text: The oligonucleotides d[AG3(T2AG3)3] (SEQ ID NO: 1), d[AG3TG4AG3TG4A] (SEQ ID NO: 2), d[G4(T4G4)3] (SEQ ID NO: 3), d[(T2G4)4] (SEQ ID NO: 4), d[(GC)7] (SEQ ID NO: 5), d[[…]] (SEQ ID NO: 6), d[G2T2G2TGTG2T2G2] (SEQ ID NO: 7), d[[…]] (SEQ ID NO: 8), d[[…]] (SEQ ID NO: 9), d[[…]] (SEQ ID NO: 10), d[[…]] (SEQ ID NO: 11), d[TTAGGGT] (SEQ ID NO: 12), and d[TGGGGT] (SEQ ID NO: 13) were purchased with HPLC purification from Midland Certified Reagent Company (The Midland Certified Reagent Company, Inc., Midland, Tex., USA). The concentration of each DNA sample was determined spectrophotometrically at 260 nm using the nearest neighbor extinction coefficient.
Stock solutions of individual dicationic polyaryl compounds were prepared in double distilled water and diluted to working concentrations immediately before use with buffer. […] Absorbance spectra were obtained on a Varian Cary 300 BIO UV-visible spectrophotometer (Varian, Inc., Palo Alto, Calif., United States of America) in a quartz cell with a 1 cm pathlength. CD spectra were recorded using a Jasco J-810 spectrapolarimeter (Jasco, Inc., Easton, Md., United States of America) in a 1-cm cell using an instrument scanning speed of 50 nm/min with a response time of 1 s. The spectra were averaged over four scans. A buffer baseline scan was collected in the same cuvette and subtracted from the average scan for each sample. […]

N=C(N)c1ccc(-c2ccc(-c3ccc(C(=N)N)o3)o2)cc1 [Compound 8, 5′-(4-Amidinophenyl)-2,2′-bifuran-5-carboxamidine]
K, binding constant for the single site [1]: 130000 M⁻¹
In Vivo T.b.r. cures ([2]; mice cured / mice infected, days 3-6 post-infection): 2/4
In Vivo T.b.r. survival time ([2]; observation up to day 60): > 45.5 days
exciton splitting in CD spectra (in words) [3]: exhibited exciton splitting
